The target in the assay is T1, SolinPBAN-R (Solenopsis invicta, UniProt L0APC6).
T1 sequence (L0APC6 1-605): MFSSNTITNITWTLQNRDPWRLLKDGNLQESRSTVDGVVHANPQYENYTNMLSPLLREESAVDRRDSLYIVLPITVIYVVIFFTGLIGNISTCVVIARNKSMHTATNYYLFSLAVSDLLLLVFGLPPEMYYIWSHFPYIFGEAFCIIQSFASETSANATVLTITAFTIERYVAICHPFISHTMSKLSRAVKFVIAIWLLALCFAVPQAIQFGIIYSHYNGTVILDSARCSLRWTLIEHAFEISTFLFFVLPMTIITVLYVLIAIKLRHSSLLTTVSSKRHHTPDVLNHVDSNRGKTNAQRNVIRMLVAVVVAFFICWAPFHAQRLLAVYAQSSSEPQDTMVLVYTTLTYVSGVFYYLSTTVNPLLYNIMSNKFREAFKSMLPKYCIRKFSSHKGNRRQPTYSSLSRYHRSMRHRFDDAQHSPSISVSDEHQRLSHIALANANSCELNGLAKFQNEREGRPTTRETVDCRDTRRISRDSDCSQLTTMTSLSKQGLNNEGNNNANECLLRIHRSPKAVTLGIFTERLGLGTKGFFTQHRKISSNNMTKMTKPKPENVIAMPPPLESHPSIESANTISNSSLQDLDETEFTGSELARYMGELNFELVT
The assay is described as follows: SolinPBAN-R/peptide binding assay (calcium-based Fluo-4AM fluorescence in Sf9 cells expressing SolinPBAN-R). The format is cell-based. As to conditions: for pEC50: SolinPBAN-R expressed in Sf9 cells, Fluo-4AM fluorescence relative to 1 µM ionomycin maximum, read-out: EC50 (half-maximal effective concentration), binding activity to SolinPBAN-R. As for the experimental part:
Poly(A) RNA was isolated from whole bodies and heads of S. invicta workers and mature female alates for synthesis cDNA as described previously. Synthesized cDNA was amplified with a degenerate primer set: 5′-[…]-3′ ([…]) and 5′-[…]-3′ ([…]) mostly conserved in TM2 and TM7 domains from insect PBAN-Rs [25]–[27]. PCR was performed for 35 cycles at 95°C for 30 s, 50°C for 30 s, and 72°C for 1 min. The PCR product was directly sequenced by Interdisciplinary Center for Biotechnology Research (ICBR, University of Florida), and then the sequence result was used to design further gene-specific primers to find 5′- and 3′- ends of the fire ant PBAN-R cDNA. 5′-RACE (GeneRacer kit, Invitrogen) was performed using primers 5′-[…]-3′ (from nucleotide 1106) and 5′-[…]-3′ (from nucleotide 588) by the 5′-RACE kit (Invitrogen). 3′-RACE was performed using primers 5′-[…] NTTYCA-3′ (from nucleotide 1199), 5′-[…] […]-3′ (from nucleotide 1336) and 5′-[…]-3′ (from nucleotide 1392). Then PCR products were inserted into a subcloning vector (TOPO-TA, Invitrogen) and confirmed the nucleotides by DNA sequence. Sequences of the receptor DNA and corresponding amino acids were analyzed by Genetyx software ver. 10 (Genetyx Corporation) and PredictProtein software. The ORF of PBAN-R cDNA was amplified using the sense primer of 5′- […] […]-3′ (from nucleotide 255 including the NotI site) and 5′-[…] […]-3′ (from nucleotide 2122 including the XbaI site). The PCR product was ligated into a pIBV5His vector (Invitrogen) for expression in Sf9 cells as described previously.
All peptides used in this study were synthesized or purchased from Sigma Genosys or Peninsula Laboratories. The preparation of cells, peptides, and Fluo-4AM with hymenopteran saline followed a previously described method. Cell fluorescence intensity in a 96-well cell-culture was measured using a plate reader (BMG's NovoStar) equipped with filters (excitation: 485 nm and emission: 520 nm), and one pipetter and two injectors. Fluorescence measurements from each well were taken every 10s. After 30s PBAN or FXPRL peptide (10 µL) was added by pipetter and fluorescent changes were measured for up to 3 min. Then, 1 µM ionomycin (5 µL) was added into the cells to obtain a maximum fluorescence reading. The effect of ligand-exposure was expressed relative to the maximum value obtained with ionomycin. Data were analyzed using Microsoft EXCEL as described previously and measured EC50 values of ligands were determined using GraphPad Prism 4.03 software.
The PBAN/pyrokinin family of peptides and their receptors are currently classified as PK1 or PK2. Diapause Hormone (DH) peptides and their receptors are classified as type PK1. PBAN and other PBAN family peptides, and their receptors are classified as type PK2 [12]. To verify our SolinPBAN-R assignment we determined binding affinities for a number of PK1 ( = DH type) and PK2 ( = PBAN type) neuropeptides to SolinPBAN-R (Table 1). We expressed SolinPBAN-R in Spodoptera frugiperda 9 (Sf9) insect cells, which enabled binding specificity studies by measurement of calcium-based fluorescence intensity (Fig. 3A and Table 1). […] The SolinPBAN/pyrokinin gene is expressed in all life stages in fire ant, from egg to adult; however, the disposition of the four SolinPBAN/pyrokinin peptides in each life stage, as well as the possibility of additional receptors is unknown and currently under investigation.

pEC50: −log10 of the molar value. Read-outs that look alike come from different tables or passages of the source. Ends that are not written are not given here. A value given as a limit tells only on which side of the number the result lay.

Consider “GSGEDLSYGDAYEVDEDDHPLFVPRL-NH2 [SolinPBAN]”, for which the “EC50 value times less than HelzePBAN” value (18 nM vs. 56 nM, Sf9 cells expressing SolinPBAN-R) turned out to be 3 times. Besides, the pEC50 (N≥4) is 7.74.

For the substance “LSDDMPATPADQEMYRQDPEQIDSRTKYFSPRL-NH2 [HelzePBAN]”, the pEC50 (N≥4) was 7.25. With “NDVKDGAASGAHSDRLGLWFGPRL-NH2 [HelzePGN24 (DH)]”, the pEC50 is less than 6.00. For the substance SVPFKPRL-NH2 [DromePK2], for the setting “N≥4”, the pEC50 is 6.79. As for TGPSASSGLWFGPRL-NH2 [DromePK1], the pEC50 is less than 6.00.

On to TSQDIASGMWFGPRL-NH2 [SolinDH], for which the pEC50 (N≥4) is 6.90.
